How the values were obtained:
[1] = system: THP-1; test: Cytotoxicity against human THP1 cells assessed as growth inhibition at 50 uM after 48 hrs by sulforhodamine B assay relative to control; type: functional; details: THP-1, 48 h, read-out: GI
[2] = Cytotoxicity against human MIAPaCa2 cells assessed as growth inhibition at 50 uM after 48 hrs by sulforhodamine B assay relative to control; type: functional; details: MIA PaCa-2, 48 h, read-out: GI
[3] = system: COLO 205; test: Cytotoxicity against human COLO205 cells assessed as growth inhibition at 50 uM after 48 hrs by sulforhodamine B assay relative to control; type: functional; details: COLO 205, 48 h, read-out: GI
[4] = system: A549; test: Cytotoxicity against human A549 cells assessed as growth inhibition at 50 uM after 48 hrs by sulforhodamine B assay relative to control; type: functional; details: A549, 48 h, read-out: GI
[5] = system: HeLa; test: Cytotoxicity against human HeLa cells assessed as growth inhibition at 50 uM after 48 hrs by sulforhodamine B assay relative to control; type: functional; details: read-out: GI
[6] = system: HCT-116; test: Cytotoxicity against human HCT116 cells assessed as growth inhibition at 50 uM after 48 hrs by sulforhodamine B assay relative to control; type: functional; details: HCT-116, 48 h, read-out: GI
[7] = system: PC-3; test: Cytotoxicity against human PC3 cells assessed as growth inhibition at 50 uM after 48 hrs by sulforhodamine B assay relative to control; type: functional; details: PC-3, 48 h, read-out: GI
[8] = system: CAKI-1; test: Cytotoxicity against human Caki1 cells assessed as growth inhibition at 50 uM after 48 hrs by sulforhodamine B assay relative to control; type: functional; details: CAKI-1, 48 h, read-out: GI
[9] = system: COLO 205; test: Cytotoxicity against human COLO205 cells assessed as growth inhibition after 48 hrs by sulforhodamine B assay; type: functional, cell-based; details: COLO 205, 48 h
[10] = system: HCT-116; test: Cytotoxicity against human HCT116 cells assessed as growth inhibition after 48 hrs by sulforhodamine B assay; type: functional, cell-based; details: HCT-116, 48 h
[11] = system: THP-1; test: Cytotoxicity against human THP1 cells assessed as growth inhibition after 48 hrs by sulforhodamine B assay; type: functional, cell-based; details: THP-1, 48 h
[12] = system: PC-3; test: Cytotoxicity against human PC3 cells assessed as growth inhibition after 48 hrs by sulforhodamine B assay; type: functional, cell-based; details: PC-3, 48 h
[13] = molecular target: Tubulin; test: Inhibition of tubulin (unknown origin) polymerization after 1 hr by ELISA plate reader analysis; type: protein-complex assay, Homo sapiens

Row | IC50 [13] | Compound | inhibition of growth at 50 µM [1] | inhibition of growth at 50 µM [2] | inhibition of growth at 50 µM [3] | inhibition of growth at 50 µM [4] | inhibition of growth at 50 µM [5] | inhibition of growth at 50 µM [6] | inhibition of growth at 50 µM [7] | inhibition of growth at 50 µM [8] | IC50 [9] | IC50 [10] | IC50 [11] | IC50 [12]
1 |  | COc1ccc(/C=C/C(=O)/C=C/c2ccc(OCc3cn(CCN4C(=O)C(=O)c5cc(Br)ccc54)nn3)c(OC)c2)cc1OC | 65% | 12% | 63% | 10% | 12% | 69% | 61% | 10% |  |  |  | 
2 |  | COc1cc(/C=C/C(=O)/C=C/c2cccs2)ccc1OCc1cn(CCN2C(=O)C(=O)c3ccccc32)nn1 | 71% |  | 66% |  |  | 76% | 63% | 10% | 7.72 µM | 5.09 µM | 6.83 µM | 8.51 µM
3 |  | COc1cc(/C=C/C(=O)/C=C/c2cccc3ccccc23)ccc1OCc1cn(CCN2C(=O)C(=O)c3cc(Cl)ccc32)nn1 | 76% |  | 74% |  |  | 78% | 71% |  | 13.6 µM | 9.34 µM | 11.1 µM | 14.1 µM
4 |  | COc1ccc(/C=C/C(=O)/C=C/c2ccc(OCc3cn(CCN4C(=O)C(=O)c5cc(Cl)ccc54)nn3)c(OC)c2)cc1OC | 77% | 12% | 75% | 17% | 13% | 79% | 73% | 10% | 11.5 µM | 6.94 µM | 9.33 µM | 13.7 µM
5 |  | COc1ccccc1/C=C/C(=O)/C=C/c1ccc(OCc2cn(CCN3C(=O)C(=O)c4ccccc43)nn2)c(OC)c1 | 70% | 13% | 67% | 11% | 12% | 75% | 64% | 15% | 8.16 µM | 4.56 µM | 6.34 µM | 8.97 µM
6 |  | COc1cc(/C=C/C(=O)/C=C/c2ccccc2)ccc1OCc1cn(CCN2C(=O)C(=O)c3cc(Cl)ccc32)nn1 | 65% | 13% | 63% | 21% | 14% | 68% | 58% | 13% |  |  |  | 
7 |  | COc1cc(/C=C/C(=O)/C=C/c2cc(OC)c(OC)c(OC)c2)ccc1OCc1cn(CCN2C(=O)C(=O)c3cc(Cl)ccc32)nn1 | 86% | 13% | 84% | 22% | 15% | 89% | 80% | 13% | 5.97 µM | 2.17 µM | 4.56 µM | 7.14 µM
8 | 3.97 µM | COc1ccc(/C=C/C(=O)/C=C/c2ccc(OCc3cn(CCN4C(=O)C(=O)c5ccccc54)nn3)c(OC)c2)cc1OC | 82% | 21% | 80% | 19% | 18% | 90% | 79% | 22% | 5.78 µM | 2.67 µM | 4.31 µM | 7.64 µM
9 |  | COc1ccc(/C=C/C(=O)/C=C/c2ccc(OCc3cn(CCN4C(=O)C(=O)c5cc(Br)ccc54)nn3)c(OC)c2)cc1 | 60% | 10% | 59% |  | 10% | 65% | 57% |  |  |  |  | 
10 |  | COc1cccc(/C=C/C(=O)/C=C/c2ccc(OCc3cn(CCN4C(=O)C(=O)c5cc(Cl)ccc54)nn3)c(OC)c2)c1 | 55% |  | 52% | 13% | 10% | 58% | 51% |  |  |  |  | 
11 |  | COc1ccccc1/C=C/C(=O)/C=C/c1ccc(OCc2cn(CCN3C(=O)C(=O)c4cc(Cl)ccc43)nn2)c(OC)c1 | 43% |  | 47% | 11% |  | 50% | 42% |  |  |  |  | 
12 |  | COc1cc(/C=C/C(=O)/C=C/c2ccccc2)ccc1OCc1cn(CCN2C(=O)C(=O)c3cc(Br)ccc32)nn1 | 54% | 16% | 51% | 11% | 14% | 56% | 50% | 12% |  |  |  | 
13 |  | COc1cc(/C=C/C(=O)/C=C/c2ccco2)ccc1OCc1cn(CCN2C(=O)C(=O)c3ccccc32)nn1 | 72% | 10% | 68% |  |  | 78% | 65% | 12% | 7.53 µM | 4.61 µM | 6.56 µM | 8.4 µM
14 |  | COc1ccccc1/C=C/C(=O)/C=C/c1ccc(OCc2cn(CCN3C(=O)C(=O)c4cc(Br)ccc43)nn2)c(OC)c1 | 43% |  | 47% |  |  | 50% | 42% |  |  |  |  | 
15 |  | COc1cc(/C=C/C(=O)/C=C/c2cc(OC)c(OC)c(OC)c2)ccc1OCc1cn(CCN2C(=O)C(=O)c3cc(Br)ccc32)nn1 | 73% | 15% | 70% | 13% | 15% | 75% | 69% | 12% | 5.29 µM | 2.92 µM | 3.14 µM | 6.44 µM
16 | 7.16 µM | COc1cc(/C=C/C(=O)/C=C/c2cccc3ccccc23)ccc1OCc1cn(CCN2C(=O)C(=O)c3ccccc32)nn1 | 83% | 11% | 80% | 10% | 10% | 89% | 77% | 14% | 7.99 µM | 4.79 µM | 6.15 µM | 8.54 µM
17 |  | COc1cc(/C=C/C(=O)/C=C/c2cccc(Br)c2)ccc1OCc1cn(CCN2C(=O)C(=O)c3ccccc32)nn1 | 40% |  | 36% |  |  | 42% | 35% |  |  |  |  | 
18 |  | COc1cc(/C=C/C(=O)/C=C/c2cccc3ccccc23)ccc1OCc1cn(CCN2C(=O)C(=O)c3cc(Br)ccc32)nn1 | 40% |  | 40% |  |  | 44% | 37% |  |  |  |  | 
19 |  | COc1ccc(/C=C/C(=O)/C=C/c2ccc(OCc3cn(CCN4C(=O)C(=O)c5cc(Cl)ccc54)nn3)c(OC)c2)cc1 | 64% | 10% | 63% | 15% | 12% | 66% | 60% |  | 11 µM | 7.81 µM | 9.78 µM | 12.5 µM
20 |  | COc1cc(/C=C/C(=O)/C=C/c2ccccc2)ccc1OCc1cn(CCN2C(=O)C(=O)c3ccccc32)nn1 | 66% | 20% | 64% | 10% | 12% | 71% | 60% | 15% | 8.28 µM | 5.16 µM | 7.64 µM | 9.56 µM
21 |  | COc1cccc(/C=C/C(=O)/C=C/c2ccc(OCc3cn(CCN4C(=O)C(=O)c5ccccc54)nn3)c(OC)c2)c1 | 70% | 15% | 69% | 13% | 14% | 77% | 66% | 17% | 7.34 µM | 3.92 µM | 4.41 µM | 9.16 µM
22 |  | COc1cc(/C=C/C(=O)/C=C/c2cccc(Br)c2)ccc1OCc1cn(CCN2C(=O)C(=O)c3cc(Cl)ccc32)nn1 | 12% |  | 10% |  |  | 19% | 14% |  |  |  |  | 

Source: ChEMBL document CHEMBL3627713, “Triazole linked mono carbonyl curcumin-isatin bifunctional hybrids as novel anti tubulin agents: Design, synthesis, biological evaluation and molecular modeling studies” (Bioorg Med Chem, 2015)
